Data: ChEMBL document CHEMBL3301562, “MMV Box screening against Plasmodium falciparum protein kinases and aminoacyl tRNA synthetases”
pIC50: −log10 of the molar value.

What was measured:
Type in all cases: functional
[1] = target: T1, Cdk-related protein kinase 6 (Plasmodium falciparum, UniProt O77239); assay: Final concentrations were 1.5 uM ATP, 5 mM MnCl2, and 15 ug/ml PK6 in a buffer of 100 mM Tris-HCl (pH 7.5). 50 ug/mL MBP was provided as the substrate; 10 uM staurosporine was used as a control inhibitor. Incubation time was 3 hours and 40 minutes.The catalytic activity of each kinase was considered proportional to ATP consumed, as determined from measurements of residual [ATP] with the luciferase-based reagent Kinase-Glo (Promega) following incubation. Luminescence (proportional to residual [ATP]) was measured on the plate readers FLx800 (BioTek Instruments, Winooski, VT, USA) and MicroBeta2.
T1 sequence (O77239 whole entry): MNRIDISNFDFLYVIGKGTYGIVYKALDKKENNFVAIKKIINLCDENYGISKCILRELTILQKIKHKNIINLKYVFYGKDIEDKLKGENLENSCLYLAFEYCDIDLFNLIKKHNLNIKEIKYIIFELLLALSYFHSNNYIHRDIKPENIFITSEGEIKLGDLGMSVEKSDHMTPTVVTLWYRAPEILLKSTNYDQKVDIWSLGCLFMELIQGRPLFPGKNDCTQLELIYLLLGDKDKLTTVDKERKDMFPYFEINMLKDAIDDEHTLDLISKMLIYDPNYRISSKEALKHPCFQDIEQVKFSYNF

[2] = target: T2, Putative uncharacterized protein pk7 (Plasmodium falciparum, UniProt O96214); assay: Final concentrations were 1 uM ATP, 2 mM DTT, 20 mM MgCl2, 2 mM MnCl2, 0.01% BSA, and 6 ug/ml PK7, in a buffer of 20 mM Tris-HCl (pH 7.5). The enzyme itself was the only substrate present (since autophosphorylation occurs); 100 uM 1NA-PP1 was used as a control inhibitor. Incubation time was 3 hours.
T2 sequence (O96214 whole entry): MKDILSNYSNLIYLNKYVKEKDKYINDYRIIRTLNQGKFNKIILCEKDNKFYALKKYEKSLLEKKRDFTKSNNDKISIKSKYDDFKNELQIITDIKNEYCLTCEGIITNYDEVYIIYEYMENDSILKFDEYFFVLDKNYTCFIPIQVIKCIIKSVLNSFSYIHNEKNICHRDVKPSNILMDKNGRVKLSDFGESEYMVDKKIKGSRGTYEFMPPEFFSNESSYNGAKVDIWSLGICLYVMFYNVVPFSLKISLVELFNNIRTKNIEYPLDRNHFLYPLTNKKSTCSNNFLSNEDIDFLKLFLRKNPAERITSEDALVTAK

[3] = target: T3, Mitogen-activated protein kinase (Plasmodium falciparum, UniProt Q25917); assay: Final concentrations were 1 uM ATP, 0.5 mM DTT, 1 mM MgCl2, 0.5 mg/mL BSA, and 10 ug/ml MAP2 in a buffer of 50 mM HEPES (pH 7.0). 0.5 mg/mL histone III-S served as the substrate (13); 100 uM AMP-PNP, an ATP analog, was used as a control inhibitor. Incubation time was 4 hours.
T3 sequence (Q25917 whole entry): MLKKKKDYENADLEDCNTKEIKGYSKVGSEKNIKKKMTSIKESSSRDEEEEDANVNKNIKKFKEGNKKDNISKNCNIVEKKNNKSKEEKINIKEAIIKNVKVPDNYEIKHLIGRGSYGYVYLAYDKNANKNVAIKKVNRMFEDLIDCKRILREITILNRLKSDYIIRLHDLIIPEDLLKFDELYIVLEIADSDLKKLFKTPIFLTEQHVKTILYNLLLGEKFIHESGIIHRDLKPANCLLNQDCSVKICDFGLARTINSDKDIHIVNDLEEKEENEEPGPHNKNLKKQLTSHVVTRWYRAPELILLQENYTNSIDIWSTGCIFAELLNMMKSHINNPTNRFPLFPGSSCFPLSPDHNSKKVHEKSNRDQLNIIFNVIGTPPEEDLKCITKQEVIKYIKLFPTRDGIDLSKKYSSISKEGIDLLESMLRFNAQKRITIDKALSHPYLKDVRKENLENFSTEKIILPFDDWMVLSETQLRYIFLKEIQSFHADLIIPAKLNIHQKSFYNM

[4] = target: Calcium-dependent protein kinase 1 (Plasmodium falciparum, UniProt P62344); assay: MMV: CDPK1 Protein kinase inhibition assay using recombinant PfCDPK1, syntide 2 peptide substrate, ATP and KinaseGlo to measure % inhibition at 1 uM MMV box compound.
[5] = target: T4, Calcium-dependent protein kinase 4 (Plasmodium falciparum (isolate 3D7), UniProt Q8IBS5); assay: MMV: CDPK4 Protein kinase inhibition assay using recombinant PfCDPK4, syntide2 peptide substrate, ATP and KinaseGlo to measure % inhibition at 1 uM MMV box compound.
T4 sequence (Q8IBS5 whole entry): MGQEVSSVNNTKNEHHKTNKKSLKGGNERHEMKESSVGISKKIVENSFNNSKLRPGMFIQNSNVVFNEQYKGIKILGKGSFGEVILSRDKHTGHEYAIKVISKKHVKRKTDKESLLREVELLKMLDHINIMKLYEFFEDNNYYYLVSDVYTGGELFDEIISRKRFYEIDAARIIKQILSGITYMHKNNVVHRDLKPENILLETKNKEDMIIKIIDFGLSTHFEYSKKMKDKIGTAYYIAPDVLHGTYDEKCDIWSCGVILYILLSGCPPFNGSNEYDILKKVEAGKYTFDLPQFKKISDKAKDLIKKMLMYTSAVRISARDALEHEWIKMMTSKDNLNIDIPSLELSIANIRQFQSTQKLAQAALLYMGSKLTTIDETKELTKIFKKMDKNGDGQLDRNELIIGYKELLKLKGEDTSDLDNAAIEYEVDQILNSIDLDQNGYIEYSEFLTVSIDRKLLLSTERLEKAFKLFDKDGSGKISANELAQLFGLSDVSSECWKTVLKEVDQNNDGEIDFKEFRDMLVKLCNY

Proline--tRNA ligase = target: T5, Proline--tRNA ligase (Plasmodium falciparum (isolate 3D7), UniProt Q8I5R7); assay: MMV: ProRS recombinant Plasmodium falciparum Prolyl-tRNA-synthetase, assay with yeast tRNA, ATP, and proline and 3 uM MMV malaria box compound, assay read out with kinase glo as % inhibition.
T5 sequence (Q8I5R7 whole entry): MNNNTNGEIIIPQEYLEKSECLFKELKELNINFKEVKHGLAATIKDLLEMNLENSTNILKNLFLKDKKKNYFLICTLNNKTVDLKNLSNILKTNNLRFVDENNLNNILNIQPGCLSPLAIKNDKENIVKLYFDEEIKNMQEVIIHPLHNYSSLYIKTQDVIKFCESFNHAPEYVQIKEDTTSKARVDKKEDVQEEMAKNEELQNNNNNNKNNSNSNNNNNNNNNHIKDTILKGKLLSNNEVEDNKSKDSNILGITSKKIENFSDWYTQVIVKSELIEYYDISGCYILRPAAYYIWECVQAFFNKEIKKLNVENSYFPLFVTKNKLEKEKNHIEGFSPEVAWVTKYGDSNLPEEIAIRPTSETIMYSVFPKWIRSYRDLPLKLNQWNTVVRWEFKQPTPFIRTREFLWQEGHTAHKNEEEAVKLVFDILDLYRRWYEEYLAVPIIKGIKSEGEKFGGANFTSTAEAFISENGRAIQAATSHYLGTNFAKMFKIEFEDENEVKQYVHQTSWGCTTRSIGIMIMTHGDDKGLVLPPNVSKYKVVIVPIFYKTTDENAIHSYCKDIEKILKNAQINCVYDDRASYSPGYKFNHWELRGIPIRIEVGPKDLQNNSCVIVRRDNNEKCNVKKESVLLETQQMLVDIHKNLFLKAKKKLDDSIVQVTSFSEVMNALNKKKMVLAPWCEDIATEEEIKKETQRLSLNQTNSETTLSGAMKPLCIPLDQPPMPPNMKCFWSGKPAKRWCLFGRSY

Lysine--tRNA ligase = Lysine--tRNA ligase (Plasmodium falciparum (isolate 3D7), UniProt Q8IDJ8); assay: MMV: KRS recombinant Plasmodium falciparum Lysyl-tRNA-synthetase, assay with yeast tRNA, ATP, and lysine and 3 uM MMV malaria box compound, assay read out with kinase glo as % inhibition.
Chain of Lysine--tRNA ligase (Q8IDJ8 whole entry): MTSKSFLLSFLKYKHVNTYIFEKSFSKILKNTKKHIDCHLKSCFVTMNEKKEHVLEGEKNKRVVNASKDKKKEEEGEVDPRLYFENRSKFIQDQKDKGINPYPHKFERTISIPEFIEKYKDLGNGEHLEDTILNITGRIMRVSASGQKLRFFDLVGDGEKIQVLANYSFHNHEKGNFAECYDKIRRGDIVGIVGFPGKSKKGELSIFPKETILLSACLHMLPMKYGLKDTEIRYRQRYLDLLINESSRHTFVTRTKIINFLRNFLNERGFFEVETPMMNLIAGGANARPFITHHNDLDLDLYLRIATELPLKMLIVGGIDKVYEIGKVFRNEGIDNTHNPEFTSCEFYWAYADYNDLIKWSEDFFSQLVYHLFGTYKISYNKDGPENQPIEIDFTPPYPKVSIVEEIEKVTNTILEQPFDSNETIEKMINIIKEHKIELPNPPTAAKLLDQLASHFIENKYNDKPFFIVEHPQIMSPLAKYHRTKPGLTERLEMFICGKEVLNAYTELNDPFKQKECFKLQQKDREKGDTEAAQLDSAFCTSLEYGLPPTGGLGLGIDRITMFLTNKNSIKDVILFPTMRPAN

Chain of Calcium-dependent protein kinase 1 (P62344 whole entry): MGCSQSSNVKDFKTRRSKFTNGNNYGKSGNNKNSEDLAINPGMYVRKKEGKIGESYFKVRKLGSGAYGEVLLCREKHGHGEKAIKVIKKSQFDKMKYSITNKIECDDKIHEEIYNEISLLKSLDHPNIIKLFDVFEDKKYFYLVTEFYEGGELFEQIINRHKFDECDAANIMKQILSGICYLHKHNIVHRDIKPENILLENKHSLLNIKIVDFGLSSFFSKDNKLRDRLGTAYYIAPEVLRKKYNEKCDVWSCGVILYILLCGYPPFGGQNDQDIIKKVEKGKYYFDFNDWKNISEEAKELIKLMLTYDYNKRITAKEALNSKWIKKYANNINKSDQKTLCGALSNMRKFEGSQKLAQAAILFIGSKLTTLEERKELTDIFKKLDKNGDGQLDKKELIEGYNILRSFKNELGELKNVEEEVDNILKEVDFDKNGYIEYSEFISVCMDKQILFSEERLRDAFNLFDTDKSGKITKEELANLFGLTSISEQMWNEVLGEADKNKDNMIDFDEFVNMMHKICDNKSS

Structure (SMILES) | pIC50 [1] | pIC50 [2] | pIC50 [3] | pIC50 [4] | pIC50 [5] | pIC50 (Proline--tRNA ligase) | pIC50 (Lysine--tRNA ligase)
OC(CNCC1CCCO1)Cn1c2ccc(Cl)cc2c2cc(Cl)ccc21 (centres undefined) | < 6.00 | < 6.00 | < 6.00 | < 6.00 | < 6.00 | < 5.60 | < 5.60
COc1ccc2nc(C)cc(Nc3ccccc3O)c2c1 | < 6.00 | < 6.00 | < 6.00 | < 6.00 | < 6.00 | < 5.60 | < 5.60
CCn1nc(-c2ccc(C(=O)OC)cc2)nc2c(=O)n(C)c(=O)nc1-2 | < 6.00 | < 6.00 | < 6.00 | < 6.00 | < 6.00 | < 5.60 | < 5.60
CC1(c2ccccc2)Nc2ccccc2-c2nc3ccccc3n21 (centres undefined) | < 6.00 | < 6.00 | < 6.00 | < 6.00 | < 6.00 | < 5.60 | < 5.60
COc1cccc(C2(C)Nc3ccccc3-c3nc4ccccc4n32)c1 (centres undefined) | < 6.00 | < 6.00 | < 6.00 | < 6.00 | < 6.00 | < 5.60 | < 5.60
CC(C)CNC(=O)c1c(N)n(CCc2ccccc2F)c2nc3ccccc3nc12 | < 6.00 | < 6.00 | < 6.00 | < 6.00 | < 6.00 | < 5.60 | < 5.60
CC(C)(C)CC(C)(C)NCC(O)COc1ccc(Cl)cc1Cl (centres undefined) | < 6.00 | < 6.00 | < 6.00 | < 6.00 | < 6.00 | < 5.60 | < 5.60
CCC(O)c1ccc(Br)cc1NC(=O)c1cccc(Cl)c1 (centres undefined) | < 6.00 | < 6.00 | < 6.00 | < 6.00 | < 6.00 | < 5.60 | < 5.60
CC(=O)Nc1nnc(SCc2c(C)cc(C(C)(C)C)cc2C)s1 | < 6.00 | < 6.00 | < 6.00 | < 6.00 | < 6.00 | < 5.60 | < 5.60
O=C(Nc1cccc(-c2nc3ccccc3[nH]2)c1)c1cccc(NC(=O)c2ccco2)c1 | < 6.00 | < 6.00 | < 6.00 | < 6.00 | < 6.00 | < 5.60 | < 5.60
CCN(Cc1ccccc1)C1CCN(Cc2cc(Br)ccc2O)CC1 | < 6.00 | < 6.00 | < 6.00 | < 6.00 | < 6.00 | < 5.60 | < 5.60
Cc1cc(NC(=O)c2ccc(-c3ccccc3)cc2)no1 | < 6.00 | < 6.00 | < 6.00 | < 6.00 | < 6.00 | < 5.60 | < 5.60
COc1cc(SC)ccc1C(=O)N1CCCC(C)C1 (centres undefined) | < 6.00 | < 6.00 | < 6.00 | < 6.00 | < 6.00 | < 5.60 | < 5.60
Cc1ccc(NC(=O)Nc2cccc(Cl)c2)cc1F | < 6.00 | < 6.00 | < 6.00 | < 6.00 | < 6.00 | < 5.60 | < 5.60
O=c1nc(C=Cc2ccc(Cl)cc2)oc2ccccc12 | < 6.00 | < 6.00 | < 6.00 | < 6.00 | < 6.00 | < 5.60 | < 5.60
O=C(NCc1ccco1)C1CCN(S(=O)(=O)c2ccc(Br)cc2)CC1 | < 6.00 | < 6.00 | < 6.00 | < 6.00 | < 6.00 | < 5.60 | < 5.60
COc1ccc(Nc2nc(NCc3ccccc3)c3ccccc3n2)cc1 | < 6.00 | < 6.00 | < 6.00 | < 6.00 | < 6.00 | < 5.60 | < 5.60
COc1cc2c(cc1OC)C1=NNC(=O)C1=NC(C)(C)C2 | < 6.00 | < 6.00 | < 6.00 | < 6.00 | < 6.00 | < 5.60 | < 5.60
Oc1c2c(nc3cc(-c4ccccc4)nn13)CCCC2 | < 6.00 | < 6.00 | < 6.00 | < 6.00 | < 6.00 | < 5.60 | < 5.60
Cc1cc(N2CCN(C3CCCC3)CC2)n2c(nc3ccccc32)c1C#N | < 6.00 | < 6.00 | < 6.00 | < 6.00 | < 6.00 | < 5.60 | < 5.60
CCCCOc1ccc(C(=O)Nc2cc(C)on2)cc1 | < 6.00 | < 6.00 | < 6.00 | < 6.00 | < 6.00 | < 5.60 | < 5.60
CCN(CC)S(=O)(=O)c1ccc(-c2csc(Nc3ccc(C)c(C)c3)n2)cc1 | < 6.00 | < 6.00 | < 6.00 | < 6.00 | < 6.00 | < 5.60 | < 5.60
